Converted amounts (≈) assume the structure as drawn. Values belong to the compound of their own block, whether it stands above or below them.
Experiments:
[1] = Ratio of drug level in blood to plasma (unknown origin) at 500 nM measured immediately by LC-MS/MS analysis; format: ADME, cell-free; conditions: blood and plasma
[2] = Ratio of drug level in blood to plasma (unknown origin) at 500 nM incubated for 15 mins by LC-MS/MS analysis; format: ADME, cell-free; conditions: blood and plasma
[3] = Ratio of drug level in blood to plasma (unknown origin) at 500 nM incubated for 30 mins by LC-MS/MS analysis; format: ADME, cell-free; conditions: blood and plasma
[4] = Ratio of drug level in blood to plasma (unknown origin) at 500 nM incubated for 45 mins by LC-MS/MS analysis; format: ADME, cell-free; conditions: blood and plasma
[5] = Ratio of drug level in blood to plasma (unknown origin) at 500 nM incubated for 60 mins by LC-MS/MS analysis; format: ADME, cell-free; conditions: blood and plasma
[6] = species on record: Rattus norvegicus; test: Inhibition of rat P-gp ATPase in jejuna mucosa membrane assessed as remaining enzyme activity at 20 uM using ATP as substrate preincubated for 5 mins followed by substrate addition and measured after 30 mins; format: cell membranes
[7] = n-Octanol-PBS buffer distribution coefficient, log D of compound incubated for 4 hrs by LC-MS/MS analysis; format: physicochemical
[8] = Solubility of compound in water incubated for 5 hrs by LC-MS/MS analysis; format: physicochemical
[9] = n-Octanol-water partition coefficient, log P of compound incubated for 4 hrs by LC-MS/MS analysis; format: physicochemical
[10] = species on record: Rattus norvegicus; test: Inhibition of rat P-gp ATPase in jejuna mucosa membrane assessed as remaining enzyme activity at 10 to 40 uM using ATP as substrate preincubated for 5 mins followed by substrate addition and measured after 30 mins; format: cell membranes
[11] = Permeability coefficient of compound incubated for 5 hrs by LC-MS/MS analysis based PAMPA assay; format: ADME
[12] = Protein binding in plasma (unknown origin) incubated for 4 hrs by red equilibrium dialysis based LC-MS/MS analysis; format: ADME, cell-free; conditions: read-out: PPB
[13] = Metabolic stability in human liver microsomes assessed as remaining compound at 10 uM measured at 15 mins by LC-MS/MS analysis relative to control; format: ADME, Microsome; conditions: 0.25 h
[14] = Metabolic stability in human liver microsomes assessed as remaining compound at 10 uM measured at 30 mins by LC-MS/MS analysis relative to control; format: ADME, Microsome; conditions: read-out: Stability
[15] = Metabolic stability in human liver microsomes assessed as remaining compound at 10 uM measured at 45 mins by LC-MS/MS analysis relative to control; format: ADME, Microsome; conditions: read-out: Stability
[16] = Metabolic stability in rat liver microsomes assessed as remaining compound at 10 uM measured at 15 mins by LC-MS/MS analysis relative to control; format: ADME, Microsome; conditions: read-out: Stability
[17] = Metabolic stability in rat liver microsomes assessed as remaining compound at 10 uM measured at 30 mins by LC-MS/MS analysis relative to control; format: ADME, Microsome; conditions: read-out: Stability
[18] = Metabolic stability in rat liver microsomes assessed as remaining compound at 10 uM measured at 45 mins by LC-MS/MS analysis relative to control; format: ADME, Microsome; conditions: read-out: Stability
[19] = Metabolic stability in rat liver microsomes assessed as half life at 10 uM by LC-MS/MS analysis; format: ADME, Microsome
[20] = Intrinsic clearance in rat microsome at 10 uM by LC-MS/MS analysis; format: ADME; conditions: microsomes
[21] = Intrinsic clearance in rat liver at 10 uM by LC-MS/MS analysis; format: ADME, tissue-based; conditions: read-out: CLH
[22] = Stability in rat liver microsomes assessed as hepatic extraction ratio at 10 uM by LC-MS/MS analysis; format: ADME, Microsome; conditions: read-out: ERH
[23] = Metabolic stability in human liver microsomes assessed as half life at 10 uM by LC-MS/MS analysis; format: ADME, Microsome
[24] = Intrinsic clearance in human microsomes at 10 uM by LC-MS/MS analysis; format: ADME, Microsome
[25] = Intrinsic clearance in human liver at 10 uM by LC-MS/MS analysis; format: ADME, tissue-based; conditions: read-out: CLH
[26] = Stability in human liver microsomes assessed as hepatic extraction ratio at 10 uM by LC-MS/MS analysis; format: ADME, Microsome; conditions: read-out: ERH
[27] = system: A549; test: Cytotoxicity against human A549 cells assessed as reduction in cell viability by MTT assay; format: functional, cell-based
[28] = species on record: Rattus norvegicus; test: Inhibition of rat P-gp ATPase in jejuna mucosa membrane at 10 to 40 uM using ATP as substrate preincubated for 5 mins followed by substrate addition and measured after 30 mins relative to control; format: cell membranes

- blood plasma ratio at 0 min, 0.5 µM [1]: 1.3
- blood plasma ratio at 0.25 h, 0.5 µM [2]: 1.17
- blood plasma ratio at 0.5 h, 0.5 µM [3]: 1.2
- blood plasma ratio at 0.75 h, 0.5 µM [4]: 1.15
- blood plasma ratio at 1 h, 0.5 µM [5]: 1
SMILES: CC(C)NCC(O)COc1ccc(CC(N)=O)cc1 (stereo not drawn) [ATENOLOL]

- Activity [6]: 2.8 µM/min/µL
SMILES: O[C@@H](COc1cccc2ncccc12)CN1CCN([C@@H]2c3ccccc3[C@@H]3[C@H](c4ccccc42)C3(F)F)CC1

- logD at 4 h [7]: 0.08
- solubility at 5 h [8]: 6.8 µg/mL (≈ 16.2 µM)
- logP at 4 h [9]: 4.06
- Activity [10]: 6.7 µM/min/µL
- log Pe [11]: Dose-dependent effect
- fraction unbound at 4 h [12]: < 0.1
- blood plasma ratio at 0 min, 0.5 µM [1]: 0.9
- blood plasma ratio at 0.25 h, 0.5 µM [2]: 1.11
- blood plasma ratio at 0.5 h, 0.5 µM [3]: 1.25
- blood plasma ratio at 0.75 h, 0.5 µM [4]: 1.35
- blood plasma ratio at 1 h, 0.5 µM [5]: 1.4
- Stability [13]: 73%
- remaining at 0.5 h, 10 µM [14]: 73%
- remaining at 0.75 h, 10 µM [15]: 73%
- remaining at 0.25 h, 10 µM [16]: 76%
- remaining at 0.5 h, 10 µM [17]: 76%
- remaining at 0.75 h, 10 µM [18]: 76%
- half-life at 10 µM [19]: 1.18 h
- CLint [20]: 19 µL/min/mg
- CLint scaled at 10 µM [21]: 34 mL/min/kg
- hepatic extraction ratio at 10 µM [22]: 0.41
- t1/2 [23]: 1.38 h
- CLint [24]: 20.6 µL/min/mg
- CLint scaled at 10 µM [25]: 32.3 mL/min/kg
- hepatic extraction ratio at 10 µM [26]: 0.6
- inhibition [28]: 1 to 12%
SMILES: CCOC(=O)C1=C(C)NC(=O)NC1c1cc2c(cc1OC)OC(C)(CC)C=C2Cl (stereo not drawn)
- IC50 [27]: 139 nM
